Data as given in ChEMBL document CHEMBL3867434, “Regiospecific Prenylation of Hydroxyxanthones by a Plant Flavonoid Prenyltransferase” (J Nat Prod, 2016).
Active and inactive are the calls of the source. The rule behind the calls is not given here.

Experiments:
[1] = Neuroprotective activity in human SK-N-SH cells assessed as inhibition of glutamate-induced injury by measuring increase in cell viability at 10 uM preincubated for 4 hrs followed by glutamate addition measured after 4 hrs by MTT assay; type: functional, cell-based
[2] = Neuroprotective activity in human SK-N-SH cells assessed as inhibition of glutamate-induced injury by measuring cell survival at 10 uM preincubated for 4 hrs followed by glutamate addition measured after 4 hrs by MTT assay relative to control; type: functional, cell-based

| Structure (SMILES) | Activity [1] | Survival [2] [%] |
| --- | --- | --- |
| O=c1c2c(O)cc(O)cc2oc2cc(O)cc(O)c12 | Active | – |
| CC(C)=CCc1c(O)cc2oc3ccc(O)cc3c(=O)c2c1O | Active | 82.9 |
| O=c1c2cc(O)ccc2oc2cc(O)cc(O)c12 | Active | – |
| CC(C)=CCc1c(O)cc2oc3cc(O)cc(O)c3c(=O)c2c1O | Active | – |
| Oc1ccc(/C=C/c2cc(O)cc(O)c2)cc1 | – | 79.9 |
| CC(C)=CCc1c(O)cc2oc3cc(O)c(CC=C(C)C)c(O)c3c(=O)c2c1O | Active | – |
